Results on six compounds are retold here after patent US10294273B2, “Macrocyclic peptidomimetics for alpha-helix mimicry” (UNIVERSITY OF ROCHESTER, priority 2014, dated 2019).

Bounds are passed on as bounds.

In general, IC50 refers to the concentration needed to halve the response being measured.

The test system of data set [1] is p53(15-29)-HDM2 interaction. Kind of data set: HDM2 IC50 (nM). The source says:
(§1) Table printed on a drawing sheet, FIG. 10
Head of the field: HDM2 IC50 (nM)
(§2) The patent's description of the figure: FIG. 10. Amino acid sequence, structure, and inhibitory activity of selected p53 macrocyclic peptidomimetics and reference linear peptides. The inhibitory activities refer to IC50 values for disruption of p53(15-29)-HDM2 interaction or p53(15-29)-HDMX interaction as determined using a Surface Plasmon Resonance-based inhibition assay.
(§3) First copying reader's note: In cyclic peptides the linker name (SP4, SP6, SP8, SP9) is printed above the sequence inside a bracket running from the pAcF/mAcF residue to the C-terminus; it is given here before the sequence.
(§4) Where the first naming reader finds the target: description_of_the_figure: IC50 values for disruption of p53(15-29)-HDM2 interaction or p53(15-29)-HDMX interaction

Data set [2] deals with p53(15-29)-HDMX interaction. Kind of data set: HDMX IC50 (nM).
Description: as §1
Head of the field: HDMX IC50 (nM)
as §2, §3, §4

The test system of data set [3] is SJSA-1 cells. Kind of data set: Cell viability (MTT) assay in SJSA-1 osteosarcoma cells. Type of data set: cell-based, human. The following applies: overnight treatment. How it is done: The cytotoxic activity of the macrocyclic peptidomimetic molecules is determined, for example, in cell-based assays using tumorigenic and non-tumorigenic cell lines and primary cells derived from human or mouse cell populations. […]. Such assays can be used to assess the efficacy of the macrocyclic peptidomimetic molecules to reduce the viability of tumorigenic and non-tumorigenic cells. In addition, assays that measure Annexin V and caspase activation can be optionally used to assess whether the cytotoxicity of the macrocyclic peptidomimetic molecules is dependent upon activation of the apoptotic machinery, which is expected to result from reactivation of p53 activity.
Similar results were obtained for other p53 macrocyclic peptidomimetic molecules described in FIG. 10, resulting in LD50 in the low micromolar range.
Cultured SJSA-1 cells were maintained in the RPMI-1640 medium supplemented with 10% fetal bovine serum. For viability evaluation cells were seated in 96-well, tissue culture treated plates (2×10^4 cells/well) and incubated overnight. […] The cells were treated overnight and the viability was assessed by a standard MTT (3-(4,5-dimethylthiazol-2-yl)-2,5-diphenyltetrazolium bromide) assay. The viability is expressed as percentage of viability of the non-treated cells.

Data set [4] concerns the target chymotrypsin (Bos taurus, UniProt P00766). Kind of data set: Proteolytic stability in the presence of chymotrypsin (HPLC). The following applies: chymotrypsin 1.0 μg/mL, peptide 10 μM.
Description: This property can be assessed by incubating the macrocyclic peptidomimetic molecules and the corresponding reference non-macrocyclic polypeptides in the presence of purified proteases or, alternatively, human blood serum. The in vitro proteolytic degradation of the compounds can be then monitored over time by HPLC equipped with a UV detector. From the resulting time-dependent curves, the half-life of the compounds can be measured. As an example, the in vitro proteolytic stability of macrocycles was measured by incubating the compound (10 μM) in 50 mM potassium phosphate buffer (pH 7.5) in the presence of chymotrypsin (1.0 μg/mL) at room temperature. At different time points (e.g. 0, 30, 60, 120, 180, 240 min), an aliquot of the reaction mixture (50 μL) was removed, quenched addition of TFA (5 μL) followed by HPLC analysis. Peptide cleavage was monitored based on the decrease of the peak area corresponding to the integer peptide.
Each peptide (10 μM) was dissolved in 50 mM potassium phosphate buffer (pH 7.5) containing 150 mM NaCl and 10% DMSO. Chymotrypsin (Sigma-Aldrich) was added to a final concentration of 1.0 μg/mL and incubated at room temperature. At each time point, a 50 μL aliquot of the mixture was removed, quenched by TFA addition (5 μL) followed by HPLC analysis. Peptide cleavage was monitored based on the decrease of the peak area corresponding to the integer peptide. […]
A short description of data set [5]: Circular dichroism analysis of α-helicity. Conditions: 5 mM potassium phosphate pH 7.0, 40% trifluoroethanol. (Circular dichroism is the unequal absorption of left and right circularly polarised light.)
Description: The alpha helical content of the macrocyclic peptidomimetic molecules and reference non-macrocyclic compounds disclosed herein can be determined by Circular Dichroism (CD) spectroscopy.
CD spectra were recorded with a JASCO J-710 CD spectropolarimeter using a 0.1 cm path length cuvette at room temperature. The purified peptides were dissolved in 5 mM potassium phosphate buffer (pH 7.0) containing 40% trifluoroethanol to a final concentration of 20-50 μM. […] The bandwidth was set to 2.0 nm and the sensitivity of the spectrometer set to 100 mdeg.
The test system of data set [6] is HEK-293 cells. Kind of data set: Cell penetration by confocal fluorescence microscopy. Format: cell-based, human. The following applies: fluorescein-conjugated compound, 20 μM, 2 h. As to the method: In some embodiments, the macrocyclic peptidomimetics described herein are more cell permeable than a corresponding non-macrocyclic counterpart. […] To measure the cell permeability of these compounds, intact cells are incubated with fluorescently labeled (e.g. fluorescein-conjugated) macrocyclic peptidomimetic molecule or corresponding non-macrocyclic counterpart (10 μM) for 4 hrs in serum free media at 37° C. Cells are then washed twice with media, incubated with trypsin (e.g. 0.25% trypsin, 10 min, 37° C.), then washed again and resuspended in PBS. Cellular fluorescence is analyzed, for example, by using a FACSCalibur flow cytometer. Alternatively, the ability of the fluorescently labelled compound to penetrate cells can be assessed by confocal fluorescence microscopy.
Similar results were obtained for other p53 macrocyclic peptidomimetic molecules described in FIG. 10.
The cell permeability properties of the macrocyclic peptidomimetics and reference linear peptides were assessed using HEK-293 cell line. These cells were cultured in the DMEM medium supplemented with 10% fetal bovine serum and penicillin/streptomycin. For the cell permeability evaluations, cells were seated overnight (1×10^4 cells/well) in 24-well tissue culture treated plates with glass bottom. […]

Data set [7] addresses T1, HDMX (Homo sapiens, UniProt O15151).
T1 construct: His tag (C); made in house; host or cells: E. coli BL21(DE3)
T1 sequence (O15151 1-109): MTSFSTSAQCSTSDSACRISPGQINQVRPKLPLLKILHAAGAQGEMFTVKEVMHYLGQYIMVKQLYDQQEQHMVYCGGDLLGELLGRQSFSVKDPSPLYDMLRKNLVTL
Kind of data set: SPR inhibition assay, disruption of p53(15-29)-HDMX interaction. Format: binding. Conditions: selectivity ratio between the two protein homologs. An excerpt:
The ability of the macrocyclic peptidomimetic molecules to bind a protein of interest and disrupt a target protein-protein interaction can be assessed, for example, via in vitro surface plasmon resonance (SPR)-based inhibition assays. For example, the ability of these compounds to inhibit the interaction of p53 with oncoprotein HDM2 and HDMX can be measured via an in-solution inhibition assay, in which a biotinylated p53-derived peptide (e.g., biotin-SGSG-p5315-29) is first immobilized on a streptavidin-coated biosensor chip. Soluble HDM2 (or HDMX) is then incubated with varying concentrations of the macrocycle and the mixture is then injected over the functionalized surface. With increasing concentrations of the inhibitor, binding of HDM2 (or HDMX) to the surface is inhibited, leading to a decrease in biosensor response. The response-concentration curves can be then analyzed to measure the inhibitory activity of the compounds in terms of half-maximal inhibitory concentration (IC50).
Briefly, biotin-conjugated […] peptide was first immobilized on a streptavidin-coated biosensor chip and increasing concentrations of the inhibitors were added to a fixed concentration of HDM2 or HDMX. From the corresponding dose-response curves (FIGS. 12A-12B), half-maximal inhibitory concentrations (IC50) were determined for the compounds as summarized in FIG. 10. […]

Regarding “P6: unconstrained reference linear peptide (SEQ ID NO. 44), acyclic counterpart of P7 and P8 (GYSFAEYWNLLA; Engineered Sequence)”, the IC50 in data set [1] came to 65 nM; in data set [2], 355 nM.

Regarding `COc1ccc(C2=N[C@@H](c3ccc(Cl)cc3)[C@@H](c3ccc(Cl)cc3)N2C(=O)N2CCNC(=O)C2)c(OC(C)C)c1` [nutlin-3], in data set [3], the “viability of SJSA-1 cells upon treatment” value is given as “responsiveness of the cells to p53-HDM2 inhibition was confirmed”.

As to `CC1=NOCc2cn(nn2)Cc2ccc(CSCC(N)=O)c(c2)NC(=O)[C@H](C)NC(=O)[C@H](CC(C)C)NC(=O)[C@H](CC(C)C)NC(=O)[C@H](CC(N)=O)NC(=O)[C@H](Cc2c[nH]c3ccccc23)NC(=O)[C@H](Cc2ccc(O)cc2)NC(=O)[C@H](CCC(=O)O)NC(=O)[C@H](C)NC(=O)[C@H](Cc2ccccc2)NC(=O)[C@H](CO)NC(=O)[C@@H](NC(=O)CN)Cc2ccc1cc2` [P7], the “survival of incubation with the protease, up to” value in data set [4] is “up to 3 hour”. In data set [5], this compound gave a α-helical content of 40%.

As for `CC1=NOCc2ccc(CS)c(c2)NC(=O)[C@H](C)NC(=O)[C@H](CC(C)C)NC(=O)[C@H](CC(C)C)NC(=O)[C@H](CC(N)=O)NC(=O)[C@H](Cc2c[nH]c3ccccc23)NC(=O)[C@H](Cc2ccc(O)cc2)NC(=O)[C@H](CCC(=O)O)NC(=O)[C@H](C)NC(=O)[C@H](Cc2ccccc2)NC(=O)[C@H](CO)NC(=O)[C@@H](NC(=O)CN)Cc2ccc1cc2` [P9], the IC50 in data set [1] and in data set [2] was above 50000 nM each time.

Consider `CC1=NOCCCNC(=O)c2ccc(CSCC(N)=O)c(c2)NC(=O)[C@H](C)NC(=O)[C@H](CC(C)C)NC(=O)[C@H](CC(C)C)NC(=O)[C@H](CC(N)=O)NC(=O)[C@H](Cc2c[nH]c3ccccc23)NC(=O)[C@H](Cc2ccc(O)cc2)NC(=O)[C@H](CCC(=O)O)NC(=O)[C@H](C)NC(=O)[C@H](Cc2ccccc2)NC(=O)[C@H](CO)NC(=O)[C@@H](NC(=O)CN)Cc2ccc1cc2` [P8], for which, in data set [3], the “viability of SJSA-1 cells upon treatment” value is reported as “a reduction of cell viability”. Also, the “survival of incubation with the protease, up to” value in data set [4] was at most 4 h. The compound further displayed a α-helical content in data set [5] of 21%. For the same compound, the “cellular uptake (confocal fluorescence microscopy)” value in data set [6] was “diffuse fluorescence at the intracellular level”.

On to “P6: unconstrained reference linear peptide (SEQ ID NO. 44), acyclic counterpart of P7 and P8 (GYSFAEYWNLLA; Engineered Sequence) [reference compound]”, for which the “IC50(HDMX)/IC50(HDM2)” value in data set [7] is 5.5. The α-helical content result in data set [5] is reported as “about 31%”.
